Results on 1 compound are retold here after ChEMBL document CHEMBL4765259, “Synthesis and biological evaluation of novel shikonin-benzo[b]furan derivatives as tubulin polymerization inhibitors targeting the colchicine binding site” (Eur J Med Chem, 2020).

For orientation: MRT inf means a mean duration of stay, worked out from the concentration-time curve. One may read the half-life as the time needed for the level to fall by half in the phase considered. Higher therefore signals slow loss. In general, AUC(0-inf) refers to the area under the concentration-time curve extrapolated to infinity. Higher therefore signals more exposure.

Common to all, as to type: ADME, organism-based
Data set [1] in a line: Mean residence time (0 to infinity) in Sprague-Dawley rat at 1.5 mg/kg, iv by UPLC/MS analysis. The conditions noted are these: in vivo.
Data set [2] in a line: Half life in Sprague-Dawley rat at 1.5 mg/kg, iv by UPLC/MS analysis. The conditions noted are these: in vivo.
Data set [3] can be described thus: AUC (0 to infinity) in Sprague-Dawley rat at 1.5 mg/kg, iv by UPLC/MS analysis. The conditions noted are these: in vivo. On the set-up: time infinity, route intravenous, dose 1.5 mg/kg.
A short description of data set [4]: Apparent volume of distribution in Sprague-Dawley rat at 1.5 mg/kg, iv by UPLC/MS analysis. The following applies: in vivo, read-out: Vz.

Take `COc1ccc2cc(C(=O)O[C@H](CC=C(C)C)C3=CC(=O)c4c(O)ccc(O)c4C3=O)oc2c1`: the MRT inf in data set [1] came out at 5.12 h. In data set [2], this compound showed a half-life of 3.81 h. This compound also showed an area under the curve AUC(0-inf) in data set [3] of 2160 ng·h/mL. In addition, in data set [4], the Vd came to 3.35 L/kg.
